Measured values published in paper PMC4599284, “Redox effects and cytotoxic profiles of MJ25 and auranofin towards malignant melanoma cells” (Oncotarget, 2015).

Legend:
[1] = biological target: T1, thioredoxin reductase 1 (TrxR1) (Rattus norvegicus, UniProt O89049); assay: NADPH-dependent DTNB reduction assay with purified enzyme; irreversibility tested by desalting; type: biochemical
T1 construct: gene Txnrd1; recombinant selenocysteine-containing rat TrxR1
T1 sequence (O89049 1-499): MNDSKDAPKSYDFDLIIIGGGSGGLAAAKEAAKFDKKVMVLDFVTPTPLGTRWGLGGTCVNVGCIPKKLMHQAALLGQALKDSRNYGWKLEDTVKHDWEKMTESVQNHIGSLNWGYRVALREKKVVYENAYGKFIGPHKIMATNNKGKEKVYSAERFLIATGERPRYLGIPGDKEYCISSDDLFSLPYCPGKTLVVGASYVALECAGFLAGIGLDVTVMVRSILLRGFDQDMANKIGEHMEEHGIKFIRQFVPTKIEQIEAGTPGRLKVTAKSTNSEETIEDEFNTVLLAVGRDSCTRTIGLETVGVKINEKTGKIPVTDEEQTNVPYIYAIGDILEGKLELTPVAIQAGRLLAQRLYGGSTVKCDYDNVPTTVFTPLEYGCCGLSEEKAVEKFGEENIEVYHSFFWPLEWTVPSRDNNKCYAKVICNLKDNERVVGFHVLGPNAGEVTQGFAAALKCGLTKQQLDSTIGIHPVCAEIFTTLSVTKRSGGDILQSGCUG

[2] = biological target: T1, thioredoxin reductase 1 (TrxR1); assay: NADPH-dependent juglone reduction by purified enzyme, NADPH consumption at […] nm; type: biochemical

Compound	NADPH-dependent DTNB reduction assay with purified enzyme; irreversibility teste [1]	NADPH-dependent juglone reduction by purified enzyme, NADPH consumption at 340 n [2]
O=S(=O)(CCSc1nc2ccccc2o1)c1nc2ccccc2s1 [MJ25, 2-{[2-(1,3-benzothiazol-2-ylsulfonyl)ethyl]thio}-1,3-benzoxazole]	we also confirmed that repurchased MJ25 inhibited recombinant TrxR1 (Figure 4a)	
CC[P](CC)(CC)=[Au][S][C@@H]1O[C@H](COC(C)=O)[C@@H](OC(C)=O)[C@H](OC(C)=O)[C@H]1OC(C)=O [auranofin]	Both MJ25 and auranofin were found to inhibit TrxR1 irreversibly.	
O=C1C=CC(=O)c2c(O)cccc21 [juglone, 5-hydroxy-1,4-naphthoquinone]		using juglone as a Sec-independent substrate and the DTNB assay as a Sec-dependent activity control
